Measured values: patent US20260258025A1, “INHIBITORS OF TDP-43 AND TAU AGGREGATION” (Aquinnah Pharmaceuticals, inc., priority 2023, published 2026)
Entries after “also recorded” stand apart in the source; their conditions may differ.

What was measured:
[1] = tested on: TDP-43 nuclear localization; assay: TDP-43 localization analysis by immunofluorescence in MG-132 challenged iP11NA human motor neurons; assay type: cell-based
Method: Cell culture and differentiation of iPS Cells into motor neurons. Pluripotent stem cells were grown with mTeSR Plus medium on tissue culture dishes coated with Matrigel, and maintained in 5% CO2 incubators at 37° C. Stem cells were passaged as small aggregates of cells after 1 mM EDTA treatment. […] was added to the cultures for 16-24 h after dissociation to prevent cell death. The iP11NA iPS cell line was acquired from ALSTEM. This cell line was generated from pre-made footprint-free human iPS cells with DOX inducible Ngn2 that has been stably integrated into the human AAVS1 “Safe Harbor” site, and provides a convenient means to differentiate human iPS cells into neurons rapidly and efficiently. Motor neuron differentiation was achieved using a modified 5-day strategy.
This approach relies on neural induction through small molecule inhibition of SMAD signaling, accelerated neural differentiation through forced Ngn2 expression, and motor neuron patterning through the activation of retinoic acid and Sonic Hedgehog signaling pathways. In brief, pluripotent stem cells were dissociated to single cells using accutase and plated at a density of 80,000 cells per cm^2 on Matrigel-coated culture plates with mTeSR Plus medium supplemented with ROCK inhibitor (10 μM Y-27632, ATCC). When cells reached 50% confluency, medium was changed to differentiation medium BrainPhys medium supplemented with N2-A, SM1, […]. This time point was defined as day 0 (d0) of motor neuron differentiation. Treatment with small molecules was carried out as follows: 2 μg/mL Doxycyline, 10 μM SB431542, 100 nM LDN-193189, […] and 1 μM Smoothend agonist and 10 uM Edu. […]
A dose-responsive effect was further tested for Compound 183 using quantitative imaging analysis on the CellInsight™ CX7 High Content Analysis Platform. By comparing the intensity of TDP-43 staining in the nucleus and cytoplasm of human motor neurons, we determined Compound 183 could maintain nuclear TDP-43 from 370 nM-10 μM in the proteasome challenged motor neurons (see FIG. 2).

TDP-43 aggregation = TDP-43 aggregation assay in SY5Y TDP-43WT cells (high content imaging); assay type: cell-based; details: Homo sapiens, tetracycline induction 24 hrs, 1 hour compound pre-treatment, sodium arsenite 23 hrs, 8-point dose curve, percentage of cells with TDP-43 aggregates, read-out: IC50, Inhibition of TDP-43 Aggregation
Method in brief: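 Tetracycline-inducible eGFP-tagged wild-type human TDP-43 in SH-SY5Y cells, induced 24 h ([…]), compound pre-treated 1 h, then sodium arsenite […] for 23 h. Fixed cells imaged; percentage of DAPI-counted cells with aggregates gives IC50 from 8-point curves.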

IC50 (TDP-43 aggregation): < 500 nM
Compound: Cc1cc(-c2ccc(C3CCN(C(C)C)CC3)cc2)sc1C(=O)N1CC[C@H](N)C1 [Compound 183, (S)-(3-aminopyrrolidin-1-yl)(5-(4-(1-isopropylpiperidin-4-yl)phenyl)-3-methylthiophen-2-yl)methanone]
nuclear TDP-43 staining (immunofluorescence) ([1]; 500 nM Compound 183, pretreated 1 hour and during 1 μM MG-132 for 20 hours, human motor neurons): preventing TDP-43 nuclear clearance; also recorded: TDP-43 staining in the nucleus was observed that was much more similar to that of unchallenged neurons | maintenance of nuclear TDP-43, dose response (nuclear vs cytoplasmic TDP-43 staining intensity) ([1]; MG-132 1 μM challenged human motor neurons, CX7 quantitative imaging, effective concentration range): maintaining nuclear TDP-43 in a dose-dependent manner
